Measurements: US9394282B2, “Pyrazole carboxamides as Janus kinase inhibitors” (Merck Sharp & Dohme Corp., priority 2011, dated 2016)

Target: JAK1 (Homo sapiens (Human), UniProt P23458)
Assay: Jak biochemical HTRF assay, JAK1
Settings: recombinant purified GST-tagged catalytic domain; HTRF format; [ATP] 31.8 μM
From the text: Jak Biochemical HTRF Assay Protocol
Subsequent reagent additions employed an Agilent Bravo.

Sequence of JAK1 (P23458 875-1153): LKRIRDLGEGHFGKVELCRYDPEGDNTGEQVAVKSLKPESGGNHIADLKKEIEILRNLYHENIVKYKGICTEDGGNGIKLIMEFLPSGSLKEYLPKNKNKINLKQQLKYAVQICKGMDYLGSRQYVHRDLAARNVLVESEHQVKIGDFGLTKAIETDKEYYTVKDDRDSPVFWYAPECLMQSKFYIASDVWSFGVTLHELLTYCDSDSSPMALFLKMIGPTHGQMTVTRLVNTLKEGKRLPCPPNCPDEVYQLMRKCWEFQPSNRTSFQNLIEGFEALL

| IC50 | Compound |
| --- | --- |
| 8 nM | CC(C)(C)CCOC(=O)N1CC[C@@H](C#N)C(n2cc(C(N)=O)c(Nc3ccc(F)cc3)n2)C1 (mixture of isomers) [Example 4, 3,3-Dimethylbutyl(3S,4R and 3R,4S)-3-{4-carbamoyl-3-[(4-fluorophenyl)amino]-1H-pyrazol-1-yl}-4-cyanopiperidine-1-carboxylate] |
| 15 nM | CC(C)(C#N)COC(=O)N1CC[C@@H](n2cc(C(N)=O)c(Nc3ccc(F)cc3)n2)[C@H](C#N)C1 (racemic) [Example 5-6, 2-cyano-2-methylpropyl (3R,4R and 3S,4S)-4-{4-carbamoyl-3-[(4-fluorophenyl)amino]-1H-pyrazol-1-yl}-3-cyanopiperidine-1-carboxylate] |
| 10 nM | CCOC(=O)N1CC[C@@H](n2cc(C(N)=O)c(Nc3ccc(F)cc3)n2)[C@H](C#N)C1 (racemic) [Example 5-23, ethyl (3R,4R and 3S,4S)-4-{4-carbamoyl-3-[(4-fluorophenyl)amino]-1H-pyrazol-1-yl}-3-cyanopiperidine-1-carboxylate] |
| 4 nM | N#C[C@@H]1CCN(C(=O)OCC(F)(F)F)CC1n1cc(C(N)=O)c(Nc2ccc(F)cc2)n1 (mixture of isomers) [Example 5-78, 2,2,2-trifluoroethyl (3S,4R and 3R,4S)-3-{4-carbamoyl-3-[(4-fluorophenyl)amino]-1H-pyrazol-1-yl}-4-cyanopiperidine-1-carboxylate] |
| 1 nM | N#C[C@@H]1CCN(Cc2cccnc2F)C[C@H]1n1cc(C(N)=O)c(Nc2ccc(F)cc2)n1 (racemic) [Example 6-17, 1-{(3S,4R and 3R,4S)-4-cyano-1-[(2-fluoropyridin-3-yl)methyl]piperidin-3-yl}-3-[(4-fluorophenyl)amino]-1H-pyrazole-4-carboxamide] |
| 16 nM | COC1CC(CN2CC[C@@H](n3cc(C(N)=O)c(Nc4ccc(F)cc4)n3)[C@H](C#N)C2)C1 (mixture of isomers) [Example 6-30, 1-{(3R,4R and 3S,4S)-3-cyano-1-[(3-methoxycyclobutyl)methyl]piperidin-4-yl}-3-[(4-fluorophenyl)amino]-1H-pyrazole-4-carboxamide] |
| 440 nM | N#CCC1(COC(=O)N2CC[C@H](n3cc(C(N)=O)c(Nc4ccc(F)cc4)n3)[C@H](C#N)C2)CC1 (racemic) [Example 5-64, [1-(cyanomethyl)cyclopropyl]methyl (3R,4S and 3S,4R)-4-{4-carbamoyl-3-[(4-fluorophenyl)amino]-1H-pyrazol-1-yl}-3-cyanopiperidine-1-carboxylate] |
| 4 nM | CC1=NOC(CN2CC[C@@H](n3cc(C(N)=O)c(Nc4ccc(F)cc4)n3)[C@H](C#N)C2)C1 (mixture of isomers) [Example 6-39, 1-{(3R,4R and 3S,4S)-3-cyano-1-[(3-methyl-4,5-dihydroisoxazol-5-yl)methyl]piperidin-4-yl}-3-[(4-fluorophenyl)amino]-1H-pyrazole-4-carboxamide] |
| 358 nM | N#C[C@@H]1CN(C(=O)OC2CCOCC2)CC[C@@H]1n1cc(C(N)=O)c(Nc2ccc(F)cc2)n1 (racemic) [Example 5-60, tetrahydro-2H-pyran-4-yl (3R,4S and 3S,4R)-4-{4-carbamoyl-3-[(4-fluorophenyl)amino]-1H-pyrazol-1-yl}-3-cyanopiperidine-1-carboxylate] |
| 1 nM | N#C[C@@H]1CCN(C(=O)OCCC2CC2)CC1n1cc(C(N)=O)c(Nc2ccc(F)cc2)n1 (mixture of isomers) [Example 5-91, 2-cyclopropylethyl (3S,4R and 3R,4S)-3-{4-carbamoyl-3-[(4-fluorophenyl)amino]-1H-pyrazol-1-yl}-4-cyanopiperidine-1-carboxylate] |
| 0.1 nM | COC(C)(C)c1ccc(Nc2nn([C@@H]3COCC[C@H]3C#N)cc2C(N)=O)cc1 (single isomer, unassigned) [Example 9-25, 1-[(3S,4R or 3R,4R)-4-cyanotetrahydro-2H-pyran-3-yl]-3-{[4-(1-methoxy-1-methylethyl)phenyl]amino}-1H-pyrazole-4-carboxamide] |
| 0.2 nM | N#C[C@@H]1CCOC[C@H]1n1cc(C(N)=O)c(Nc2ccc(Cl)c(F)c2)n1 (single isomer, unassigned) [Example 9-13, 3-[(4-chloro-3-fluorophenyl)amino]-1-[(3S,4R or 3R,4S)-4-cyanotetrahydro-2H-pyran-3-yl]-1H-pyrazole-4-carboxamide] |
| 6 nM | N#C[C@@H]1CN(Cc2cocn2)CC[C@H]1n1cc(C(N)=O)c(Nc2ccc(F)cc2)n1 (racemic) [Example 6-25, 1-[(3R,4R and 3S,4S)-3-cyano-1-(1,3-oxazol-4-ylmethyl)piperidin-4-yl]-3-[(4-fluorophenyl)amino]-1H-pyrazole-4-carboxamide] |
| 16 nM | N#C[C@H]1CCOC[C@@H]1n1cc(C(N)=O)c(Nc2ccc(Cl)c(F)c2)n1 (single isomer, unassigned) [Example 9-12, 3-[(4-chloro-3-fluorophenyl)amino]-1-[(3R,4S or 3S,4R)-4-cyanotetrahydro-2H-pyran-3-yl]-1H-pyrazole-4-carboxamide] |
| 10 nM | N#C[C@@H]1CN(C(=O)OCC(F)(F)F)CC[C@H]1n1cc(C(N)=O)c(Nc2ccc(F)cc2)n1 (racemic) [Example 5-28, 2,2,2-trifluoroethyl (3R,4R and 3S,4S)-4-{4-carbamoyl-3-[(4-fluorophenyl)amino]-1H-pyrazol-1-yl}-3-cyanopiperidine-1-carboxylate] |
| 29 nM | N#C[C@@H]1CN(C(=O)OCCN2CCOCC2)CC[C@H]1n1cc(C(N)=O)c(Nc2ccc(F)cc2)n1 (racemic) [Example 5-4, 2-morpholin-4-ylethyl (3R,4R and 3S,4S)-4-{4-carbamoyl-3-[(4-fluorophenyl)amino]-1H-pyrazol-1-yl}-3-cyanopiperidine-1-carboxylate] |
| 3 nM | COC(C)(C)c1ccc(Nc2nn([C@H]3COCC[C@@H]3C#N)cc2C(N)=O)cc1 (single isomer, unassigned) [Example 9-23, 1-[(3R,4S or 3S,4R)-4-cyanotetrahydro-2H-pyran-3-yl]-3-{[4-(1-methoxy-1-methylethyl)phenyl]amino}-1H-pyrazole-4-carboxamide] |
| 0.5 nM | N#C[C@H]1CCOC[C@@H]1n1cc(C(N)=O)c(Nc2cnc3cc(Cl)ccc3c2)n1 (single isomer, unassigned) [Example 9-22, 3-[(7-chloroquinolin-3-yl)amino]-1-[(3R,4S or 3S,4R)-4-cyanotetrahydro-2H-pyran-3-yl]-1H-pyrazole-4-carboxamide] |
| 19 nM | N#C[C@@H]1CN(C(=O)OCCN2CCCC2=O)CC[C@H]1n1cc(C(N)=O)c(Nc2ccc(F)cc2)n1 (racemic) [Example 5-15, 2-(2-oxopyrrolidin-1-yl)ethyl (3R,4R and 3S,4S)-4-{4-carbamoyl-3-[(4-fluorophenyl)amino]-1H-pyrazol-1-yl}-3-cyanopiperidine-1-carboxylate] |
| 625 nM | CC(C)(C)COC(=O)N1CC[C@H](n2cc(C(N)=O)c(Nc3ccc(F)cc3)n2)[C@H](C#N)C1 (racemic) [Example 5-50, 2,2-dimethylpropyl (3R,4S and 3S,4R)-4-{4-carbamoyl-3-[(4-fluorophenyl)amino]-1H-pyrazol-1-yl}-3-cyanopiperidine-1-carboxylate] |
